According to patent US7056491B2, “Monoterpenes and sesquiterpenes as chemotherapeutic and radiation sensitizers and immunomodulators” (Wisconsin Alumni Research Foundation, priority 2000, dated 2006):
Like-named read-outs stand apart in the source and are kept apart here.

Tests used:
[1] = test system: T98G cells; experiment: Clonogenic survival assay, POH with or without radiation, T98G; format: cell-based, human
Text: Cell Line: The T98G cell line was derived from a resection specimen obtained from a patient with glioblastoma multiforme. T98G cells express endogenous mutant p53 and introduction of wild-type p53 sensitizes these cells to radiation. The radioresistance of this cell line has also been attributed to the presence of high intracellular levels of GSH, which down-regulates NFκB binding activity after exposure to ionizing radiation. A clonogenic survival assay was used to assess the response to treatment in vitro, as it is a measure of reproductive capacity.
Clonogenic Survival Assays: The T98G cell line was obtained from ATCC and maintained in DMEM-F12 medium containing 10% fetal bovine serum, 1% penicillin, streptomycin and 1 mM non-essential amino acids in a humidified incubator at 37° C. Stock solution of POH was made in the medium. One set of plates was treated with graded doses of POH (0.1 mM to 1 mM) for a period of 72 hours. Control dishes were treated with medium alone. All cells were irradiated at a dose rate of 7.5Gy/min using a CS-137 irradiator with single doses ranging from 1 Gy to 8.5Gy. The range of radiation doses used encompasses that used to treat patients.
Following irradiation, both POH treated and untreated cells were harvested by trypsinization and washed with PBS. Cells were incubated for two weeks after initial plating, fixed with methanol, stained with crystal violet and the number of colonies per dish quantitated. Survival was determined as the ratio of plating efficiencies for each irradiated group to that of the unirradiated control.
(§1) Subconfluent cultures of human glioma cell line T98G were treated with 0.1–0.5 mM of Perillyl Alcohol for 72 hours and subsequently to increasing doses of radiation from 0.1 Gy to 8.5 Gy. Control cells were treated with medium alone. The cells were harvested and an optimum number of cells were allowed to grow for 14 days. The resulting colonies were stained and counted. Each graphed point represents mean values ± SE values of triplicate dishes.
(§2) Table 1 summarizing data from different cell lines treated with radiation, radiation plus POH, and POH alone. Subconfluent cultures of human glioma (T98G, M059K, U251), prostate (DU145, PC3), colon (DLD-1, HT29) and pancreatic (MIAPACA) cancer cell lines were treated with 0.1–0.5 mM of POH for 72 hours and subsequently to increasing doses of radiation from 0.1 Gy to 8.5 Gy. Control cells were treated with medium alone. The cells were harvested and an optimum number of cells were allowed to grow for 14 days. The resulting colonies were stained and counted. Each graphed point represents mean values ± SE values of triplicate dishes. Percentage survival was determined as the ratio of plating efficiencies for each irradiated group to that of the unirradiated control.

[2] = test system: PC3 prostate cancer cells; experiment: Clonogenic survival assay, POH with or without radiation, PC3; format: cell-based, human
Method: as §1, with “FIGS. 2–14 illustrates additional work with other monoterpenes and cell lines. […] Subconfluent” for “Subconfluent”, “prostate cancer” for “of human glioma”, “PC3” for “T98G”, “POH” for “Perillyl Alcohol”, “the indicated doses of radiation” for “medium”, “growth” for “grow”
as §2

[3] = test system: HT29 colon cancer cells; experiment: Clonogenic survival assay, POH with or without radiation, HT29; format: cell-based, human
Method: as §2

[4] = test system: glioma, prostate, melanoma and colon cell lines; experiment: Cell cycle analysis by propidium iodide flow cytometry; format: cell-based; conditions: 1 mM POH 72 hours
Method: The indicated glioma (T98G, U251, U87, C6, U353 and MO59K), prostate (DU145 and PC3) melanoma (Mel5 and M21) and colon (DLD-1, HT29) cell lines were treated with medium or with 1 mM of POH dissolved in medium for 72 hours. The cells were harvested, fixed stained with propidium iodide and analyzed by flow cytometry to estimate the various phases of the cell cycle. Each point on the graph represents mean values of duplicate dishes.

[5] = test system: glioma and prostate cancer cell lines; experiment: Augmentation of CD95 (Fas)-mediated apoptosis with anti-CD95 antibody CH11; format: cell-based; conditions: T98G, U87, U353, U251; 1 mM POH with CH11, absence of cycloheximide
Method: Referring to FIG. 25, semiconfluent cultures of glioma and prostate cancel cell lines were treated with the 1 mM POH in the presence or absence of the anti-CD95 antibody CH11 (100 ng/ml), radiation (8.5 Gy for T98G, U87MG, U373 and 5.5 Gy for PC3 and DU145), cycloheximide (CX) or a combination of all for a period of 72 hours. Cells treated with cycloheximide and anti-Fas served as a positive control. The death by treating cells with 1 mM POH or radiation alone was also quantitated. The estimation of apoptosis was done by staining the harvested cells with propidium iodide as described before. Each graphed point in the figure represents the average values of duplicate samples.

[6] = test system: T98G and U87MG cell lines; experiment: Inhibition of Fas-induced apoptosis by antagonistic antibody ZB4; format: cell-based; conditions: 1 mM POH with CH11, absence of cycloheximide; inhibited by ZB4
Method: Referring to FIG. 26, semiconfluent culture plates T98G and U87MG cell lines were treated with the 1 mM POH in the presence or absence of the anti-CD95 antibody CH11 (100 ng/ml), cycloheximide (CX), the Fas-induced apoptosis blocking antibody ZB4 (2 ug/ml) or a combination of all for a period of 72 hours. Viability analysis was carried out using propidium iodide solution by flow cytometric analysis. Each graphed point in the figure represents the average values of duplicate samples.

[7] = test system: T98G cells; experiment: Clonogenic survival, POH pretreatment then cisplatin, T98G; format: cell-based, human; conditions: POH 0.1 mM–0.5 mM 48 hours then cisplatin 0.05 uM–1 uM 48 hours
Method: Referring to FIG. 28, subconfluent cells of T98G cells were treated with varying concentrations of perillyl alcohol (0.1 mM–0.5 mM) for 48 hours and subsequently treated with the indicated dose of cisplatin (0.05 uM–1 uM) for 48 hours. At the end of the treatment, POH pretreated and untreated cells in the presence and absence of cisplatin, were harvested, washed with PBS, plated at the desired cell number and incubated for two weeks. The colonies were stained with crystal violet and quantitated. Survival was determined as the ratio of plating efficiencies for each irradiated group to that of the untreated control.

[8] = test system: rat mammary carcinoma; conditions: cited from earlier work; for regression of rat mammary carcinoma: dietary administration
[9] = rats, 2% POH diet for 10 weeks; cited from earlier work

## C=C(C)[C@@H]1CC=C(CO)CC1 [POH, Perillyl alcohol]
[1]
  concentration with the most pronounced radiosensitization: 0.5 mM
  lowest concentration at which radiosensitization was observed: 0.1 mM
[1]; 0.1 mM POH 72 h, no radiation
  % SURVIVAL: 0.755 ± 0.016%
[1]; 0.1 mM POH + 5.5 Gy
  % SURVIVAL: 0.130 ± 0.002%
[1]; 0.3 mM POH 72 h, no radiation
  % SURVIVAL: 0.660 ± 0.024%
[1]; 0.3 mM POH + 5.5 Gy
  % SURVIVAL: 0.066 ± 0.004%
[1]; 0.5 mM POH 72 h, no radiation
  % SURVIVAL: 0.500 ± 0.006%
[1]; 0.5 mM POH + 5.5 Gy
  % SURVIVAL: 0.037 ± 0.014%
[1]; pretreatment before and during irradiation
  sensitization to radiation induced cell death: dose dependent sensitization
[2]; 0.1 mM POH 72 h, no radiation
  % SURVIVAL: 0.734 ± 0.038%
[2]; 0.1 mM POH + 5.5 Gy
  % SURVIVAL: 0.007 ± 0.0009%
[2]; 0.3 mM POH 72 h, no radiation
  % SURVIVAL: 0.366 ± 0.017%
[2]; 0.3 mM POH + 5.5 Gy
  % SURVIVAL: 0.003 ± 0.0058%
[2]; 0.5 mM POH 72 h, no radiation
  % SURVIVAL: 0.244 ± 0.009%
[2]; 0.5 mM POH + 5.5 Gy
  % SURVIVAL: 0.001 ± 0.00067%
[3]; 0.1 mM POH 72 h, no radiation
  % SURVIVAL: 1.060 ± 0.090%
[3]; 0.1 mM POH + 5.5 Gy
  % SURVIVAL: 0.050 ± 0.005%
[3]; 0.3 mM POH 72 h, no radiation
  % SURVIVAL: 0.714 ± 0.030%
[3]; 0.3 mM POH + 5.5 Gy
  % SURVIVAL: 0.034 ± 0.003%
[3]; 0.5 mM POH 72 h, no radiation
  % SURVIVAL: 0.400 ± 0.010%
[3]; 0.5 mM POH + 5.5 Gy
  % SURVIVAL: 0.006 ± 0.002%
[4]; MO59K
  cell cycle effect: G0/G1 block
[4]; all the cell lines except MO59K
  cell cycle effect: block in the G2/M phase
[5]
  sensitization to Fas mediated apoptosis: sensitized
[6]
  Fas-mediated apoptosis: augmented Fas-mediated apoptosis
[7]
  sensitization to cisplatin-induced cell death: dose-dependent sensitization
[8]; dietary
  potency at inducing tumor regression relative to limonene: greater than five times more potent than limonene
[8]; induced by DMBA
  regression of rat mammary carcinoma: 84%
[8]; induced by NMU
  regression of rat mammary carcinoma: 60%
[9]
  plasma levels of terpene metabolites: 820 µM
